Experimental data reported in patent publication US12486259B2, “FXR agonist having pyrazine structure, and preparation method and use” (JIANGSU TASLY DIYI PHARMACEUTICAL CO., LTD., priority 2020, dated 2025).

target: T1, FXR (Homo sapiens, UniProt Q96RI1); experiment: Intracellular FXR-TR-FRET experiment (pBIND-FXR / pG5Luc dual luciferase); type: cell-based; settings: cellular level, 18 hours with compound
T1 construct: expressed in transfected cells
T1 sequence (Q96RI1 1-486): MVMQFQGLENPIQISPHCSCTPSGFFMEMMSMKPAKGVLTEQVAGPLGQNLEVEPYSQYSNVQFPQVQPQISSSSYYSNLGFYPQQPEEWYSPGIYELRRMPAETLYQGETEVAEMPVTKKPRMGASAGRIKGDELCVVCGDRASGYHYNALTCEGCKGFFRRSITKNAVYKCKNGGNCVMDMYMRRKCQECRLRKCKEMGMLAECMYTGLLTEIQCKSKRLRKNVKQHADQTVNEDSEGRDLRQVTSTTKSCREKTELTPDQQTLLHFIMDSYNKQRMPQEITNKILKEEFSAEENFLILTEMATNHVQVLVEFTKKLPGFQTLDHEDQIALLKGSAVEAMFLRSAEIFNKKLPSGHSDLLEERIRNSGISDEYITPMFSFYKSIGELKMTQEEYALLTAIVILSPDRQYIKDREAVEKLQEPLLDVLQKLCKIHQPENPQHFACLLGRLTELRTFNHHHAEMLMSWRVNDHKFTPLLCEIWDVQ
Procedure: • 1. Cell culture: a, trypsinize dishes and seed cells are taken with appropriate density in 10 ml of complete […] at 37° C. b. Cells are incubated for 24 hours in 5% CO2 and humidified. • 2. Cell inoculation and transfection: FuGENE HD transfection reagent is used as a transfection reagent. • a. The transfection mixture is prepared according to the following procedure:
• b. The tube is tapped vigorously to mix the contents. The mixture is incubated at room temperature for 15 minutes. • c. Discs are trypsinized and cell density is determined. • d. The cytolymph is diluted to the desired volume at a density of 500,000 cells/ml (100 ul/well for 96-well plate). • e. The required volume of previously prepared transfection mixture is added to both cytolymph, and then 100 ul/well of cytolymph is dispensed onto the assay plate. • f. The assay plate is incubated under humidified conditions at 37° C., 5% CO2 for 24 hours. • 3. Compound preparation: • a. Compound stocks are prepared with a FXR working concentration of 10 mM and then diluted 3-fold in 100% DMSO. • b. 10 ul compound is added to 90 ul complete medium. • c. 5 ul compound solution is added to each well. • d. The plate is incubated at 37° C., 5% CO2 and humidified for 18 hours. • 4. Dual luciferase assay: the firefly and Renilla luciferase signals are analyzed by Dual Luciferase Reporter Assay System from Promega. Envision is used as a photometer. • 5. Result calculation: data values are normalized by dividing the firefly signal by the Renilla signal. “F/R” means “firefly/Renilla”. This normalization eliminates differences in different cell numbers and transfection efficiencies in each well. The % Activation value is calculated. The % Activation value is calculated by the following formula.
X is the “F/R” value for each concentration point. The minimum value is the average “F/R” value for the no compound control. The maximum value is the average “F/R” value of the reference compound control. • 6.

| EC50 [nM] | SMILES |
| --- | --- |
| 1790 | CC(C)c1onc(-c2c(Cl)cccc2Cl)c1COc1cnc(C2(O)CC(c3cccc(C(=O)O)c3)C2)cn1 (stereo not shown) [TM-06, 3-(3-(5-(5-isopropyl-3-(2,6-dichlorophenyl)isoxazole-4-ylmethoxy)-2-pyrazine)-1-hydroxycyclobutane) benzoic acid] |
| 3140 | O=C(O)c1cccc(N2CC(O)(c3cnc(OCc4c(-c5c(Cl)cccc5Cl)noc4C4CC4)cn3)C2)c1 [TM-02, 3-(3-(5-((5-cyclopropyl-3-(2,6-dichlorophenyl)isoxazol-4-yl)methoxy)pyrazine-2-yl)-3-hydroxyazetidin-1-yl) benzoic acid] |
| 260 | Cc1cc(C(=O)O)cc(C2CC(O)(c3cnc(OCc4c(-c5c(Cl)cccc5Cl)noc4C(C)C)cn3)C2)c1 (stereo not shown) [TM-09, 3-(3-(5-((3-(2,6-dichlorophenyl)-5-isopropylisoxazol-4-yl)methoxy)pyrazine-2-yl)-3-hydroxycyclobutyl)-5-methyl benzoic acid] |
| 1280 | O=C(O)c1cccc(C2CC(O)(c3cnc(OCc4c(-c5c(Cl)cccc5Cl)noc4C4CC4)cn3)C2)c1 (stereo not shown) [TM-01, 3-(3-(5-(5-cyclopropyl-3-(2,6-dichlorophenyl)isoxazole-4-ylmethoxy)-2-pyrazine)-1-hydroxycyclobutane) benzoic acid] |
